Results taken from US5541178A, “Carbapenem antibiotic compounds” (Zeneca Limited, priority 1991, dated 1996).
Values after ≈ are worked out from the molar mass of the structure shown. Counter-ions that a name gives are not always drawn. Like-named read-outs stand apart in the source and are kept apart here.

Legend:
Assay type in all cases: cell-based
[1] = system: Enterobacter cloacae P99+; assay: MIC by agar-dilution technique, Diagnostic Sensitivity Test
From the text: (§1) The pharmaceutically acceptable carbapenem compounds of the present invention are useful antibacterial agents having a broad spectrum of activity in vitro against standard laboratory microorganisms, both Gram-negative and Gram-positive, which are used to screen for activity against pathogenic bacteria. The antibacterial spectrum and potency of a particular compound may be determined in a standard test system. In particular the carbapenems of the present invention show good stability to beta-lactamases and in general particularly good pharmacokinetics, especially as regards half life. In general compounds show significant improvement over imipenem.
(§2) The following results were obtained for representative compounds on a standard in vitro test system using Diagnostic Sensitivity Test. The antibacterial activity is described in terms of the minimum inhibitory concentration (MIC) determined by the agar-dilution technique with an inoculum size of 10^4 CFU/spot.

D Morganii DR 062 = assay: as above
From the text: as §1, §2

B. fragilis AMP-R = assay: as above; conditions: Bacteroides fragilis, inoculum 10^4 CFU/spot
From the text: as §1, §2

S. aureus Oxford = assay: as above; conditions: Staphylococcus aureus, inoculum 10^4 CFU/spot
From the text: as §1, §2

E. coli DCO = assay: as above; conditions: Escherichia coli, inoculum 10^4 CFU/spot
From the text: as §1, §2

B. fragilis AMP-S = assay: as above; conditions: Bacteroides fragilis, inoculum 10^4 CFU/spot
From the text: as §1, §2

P. morganii I + 001 = assay: as above; conditions: Morganella morganii
From the text: as §1, §2

[2] = system: Enterobacter cloacae P99-; assay: microbe, parasite or virus in culture
From the text: as §1, §2

[3] = D Morganii DR 062, agar-dilution, inoculum 10^4 CFU/spot, read-out: MIC
[4] = P. morganii I + 001, agar-dilution, inoculum 10^4 CFU/spot, read-out: MIC

SMILES	MIC [1] [µg/mL]	MIC (D Morganii DR 062; [3]) [µg/mL]	MIC (B. fragilis AMP-R) [µg/mL]	MIC (S. aureus Oxford) [µg/mL]	MIC (E. coli DCO) [µg/mL]	MIC (B. fragilis AMP-S) [µg/mL]	MIC (P. morganii I + 001; [4]) [µg/mL]	MIC [2] [µg/mL]	MIC (D Morganii DR 062) [µg/mL]	MIC (P. morganii I + 001) [µg/mL]
C[C@@H](O)[C@H]1C(=O)N2C(C(=O)O)=C(S[C@@H]3CN[C@H](C(=O)Nc4ccc(C(=O)O)cc4O)C3)[C@H](C)[C@H]12 [Example 1, (1R,5S,6S,8R,2'S,4'S)-2-(2-(4-Carboxy-2-hydroxyphenylcarbamoyl)pyrrolidin-4-ylthio)-6-(1-hydroxyethyl)-1-methylcarbapenem-3-carboxylic acid]	0.25 (≈ 0.509 µM)	0.02 (≈ 0.0407 µM)	0.5 (≈ 1.02 µM)	0.13 (≈ 0.264 µM)	0.01 (≈ 0.0203 µM)	0.25 (≈ 0.509 µM)	0.02	0.01 (≈ 0.0203 µM)	–	–
C[C@@H](O)[C@H]1C(=O)N2C(C(=O)O)=C(S[C@@H]3CN[C@H](C(=O)Nc4cc(C(=O)O)ccc4O)C3)[C@H](C)[C@H]12 [Example 2, (1R,5S,6S,8R,2'S,4'S)-2-(2-(5-Carboxy-2-hydroxyphenylcarbamoyl)pyrrolidin-4-ylthio)-6-(1-hydroxyethyl)-1-methylcarbapenem-3-carboxylic acid]	1 (≈ 2.03 µM)	0.06 (≈ 0.122 µM)	–	0.13 (≈ 0.264 µM)	0.03 (≈ 0.061 µM)	0.25 (≈ 0.509 µM)	0.06	0.01 (≈ 0.0203 µM)	–	–
C[C@@H](O)[C@H]1C(=O)N2C(C(=O)O)=C(S[C@@H]3CN[C@H](C(=O)Nc4cccc(C(=O)O)c4C(=O)O)C3)[C@H](C)[C@H]12 [Example 4, (1R,5S,6S,8R,2'S,4'S)-2-(2-(2,3-Dicarboxyphenylcarbamoyl)pyrrolidin-4-ylthio)-6-(1-hydroxyethyl)-1-methylcarbapenem-3-carboxylic acid]	1 (≈ 1.92 µM)	–	0.5 (≈ 0.962 µM)	0.25 (≈ 0.481 µM)	0.02 (≈ 0.0385 µM)	0.13 (≈ 0.25 µM)	–	0.01 (≈ 0.0192 µM)	0.03 (≈ 0.0577 µM)	0.03 (≈ 0.0577 µM)
C[C@@H](O)[C@H]1C(=O)N2C(C(=O)O)=C(S[C@@H]3CN[C@H](C(=O)Nc4ccccc4C(=O)O)C3)[C@H](C)[C@H]12 [Example 5, (1R,5S,6S,8R,2'S,4'S)-2-(2-(2-Carboxyphenylcarbamoyl)pyrrolidin-4-ylthio)-6-(1-hydroxyethyl)-1-methylcarbapenem-3-carboxylic acid]	1 (≈ 2.1 µM)	–	0.25 (≈ 0.526 µM)	0.06 (≈ 0.126 µM)	0.03 (≈ 0.0631 µM)	0.25 (≈ 0.526 µM)	–	0.06 (≈ 0.126 µM)	0.03 (≈ 0.0631 µM)	0.03 (≈ 0.0631 µM)
C[C@@H](O)[C@H]1C(=O)N2C(C(=O)O)=C(S[C@@H]3CN[C@H](C(=O)Nc4ccc(C(=O)O)cc4C(=O)O)C3)[C@H](C)[C@H]12 [Example 13, (1R,5S,6S,8R,2'S,4'S)-2-(2-(2,4-Dicarboxyphenylcarbamoyl)pyrrolidin-4-ylthio)-6-(1-hydroxyethyl)-1-methylcarbapenem-3-carboxylic acid]	2 (≈ 3.85 µM)	0.02 (≈ 0.0385 µM)	0.5 (≈ 0.962 µM)	0.25 (≈ 0.481 µM)	0.02 (≈ 0.0385 µM)	0.13 (≈ 0.25 µM)	0.01	0.03 (≈ 0.0577 µM)	–	–
COc1ccc(NC(=O)[C@@H]2C[C@H](SC3=C(C(=O)O)N4C(=O)[C@H]([C@@H](C)O)[C@H]4[C@H]3C)CN2)c(C(=O)O)c1 [Example 31, (1R,5S,6S,8R,2'S,4'S)-2-(2-(2-Carboxy-4-methoxyphenylcarbamoylpyrrolidin-4-ylthiol)-6-(1-hydroxyethyl)-1-methylcarbapenem-3-carboxylic acid, dipotassium salt]	1	0.06	0.25	0.13	0.02	0.25	–	0.03	–	0.03
CO/N=C(\C(=O)N[C@@H]1C(=O)N2C(C(=O)O)=C(CSc3nc(=O)c(=O)[nH]n3C)CS[C@H]12)c1csc(N)n1 [ceftriaxone, reference compound]	32 (≈ 57.7 µM)	1 (≈ 1.8 µM)	> 128	2 (≈ 3.61 µM)	0.03 (≈ 0.0541 µM)	2 (≈ 3.61 µM)	0.01	0.06 (≈ 0.108 µM)	–	–
